This is an account of results in article PMC7914648 (Pharmaceuticals, 2021).

The subject of data set [1] is SHSY-5Y cells. Nature of the data set: MTS cell viability assay. The class given is cell-based. The protocol: SHSY-5Y cells (kindly provided by I. Szabò) were grown in Dulbecco’s Modified Eagle Medium (DMEM, Aurogene) supplemented with 10% (v/v) fetal bovine serum (FBS), 100 U/mL penicillin G, 0.1 mg/mL streptomycin and 5% glutamine.
SHSY-5Y cells were seeded (10,000 cells/well) in standard 96-well plates in DMEM (200 µL). After 24 h, the growth medium was replaced with a medium containing PAPTP and PAPTPL (from a stock solution in DMSO) at the desired final concentrations (20, 10 and 3 μM). DMEM without additions (CONTROL in Figure 2) was used as negative control. The final concentration of DMSO was 0.1% or lower in all cases (including control). After incubation for 24 h, 20 µL of CellTiter 96 AQUEOUS One solution (Promega, Italy) were added to each well and the plate was incubated at 37 °C in a humidified, 5% CO2 atmosphere for 4 h. Absorbance was measured at 490 nm to detect formazan formation.
In general terms: Tetrazolium assays rely on reduction of a dye to a coloured formazan, in cell work by metabolically active cells.

Data set [2] is described as follows: Tissue distribution of An2-PAPTP and metabolites (liver, spleen, kidneys, heart) after i.v. injection. The class given is in vivo, mouse. Conditions: mean ± SEM; for metabolite in liver, 15 min: n = 5; for metabolite in heart, 15 min / metabolite in kidneys, 15 min / metabolite in spleen, 15 min: N = 5. The text has this: The total amount of An2-PAPTP and its metabolites, summarized in Table 3, is comprehensive of all the species having the characteristic psoralenic UV spectrum obtained by the overall extraction procedure (i.e., from organic solvent extraction and basic hydrolysis of the remaining pellet), and represents and underestimation of the real concentration in the tissue (see Section 4.7.3). This is because no recovery yield correction was applied, since it was impossible to identify most of the species extracted, and because PAPTPL extracted after high-pH hydrolysis of the pellet could come either from An2-PAPTP or from metabolites. For quantification in HPLC analysis, all the psoralenic species were assumed to have the same molar extinction coefficient as PAPTPL, an assumption justified by the near-identity observed for all the available psoralen-containing molecules.
The liver, spleen, kidneys, heart obtained from untreated mice were weighed and homogenized with PBS pH 7.4 (1 vol) with a potter. The pre-established amount of PAPTPL was added into tissue homogenates or blood and, after thorough vortexing, 5 vol of acetone were added and the sample was sonicated for 2 min. Subsequently, 5 vol of ACN containing 0.1% TFA were added and the sample was sonicated for 5 min. The sample was then centrifuged at 12,000× g for 7 min at 4 °C and the supernatant was collected, concentrated with a Hetovac VR-1, and analyzed via HPLC-UV.
(§1) Brain and liver obtained from untreated mice were weighed and homogenized with PBS pH 7.4 (1 vol) with a potter. The pre-established amount of analyte was added into tissue homogenates and, after thorough vortexing, 5 vol of acetone were added and the sample was sonicated for 2 min. Subsequently, 5 vol of ACN containing 0.1% trifluoracetic acid (TFA) were added and the sample was sonicated for 5 min. The sample was then centrifuged at 12,000× g for 7 min at 4 °C and the supernatant was collected, concentrated with a Hetovac VR-1, and analyzed via HPLC-UV.
(§2) To quantify the amount of An2-PAPTP stuck in the tissue, the pellet remaining after the procedure described above was incubated with intermittent Vortexing at 60 °C for 3 h with PBS pH 12.5/ACN 1:1 and then centrifuged at 12,000× g for 7 min. HPLC-UV analysis of the supernatant, measuring PAPTPL hydrolyzed from the tissue, thus indirectly reflects the amount of An2-PAPTPL in the pellet (Scheme 3). Quantification was as described for PAPTPL.
(§3) A stock solution of the peptide-PAPTP conjugates was prepared in DMSO. TAT-PAPTP was administered at 8 and 5 μmol/kg bw and An2-PAPTP only at 5 μmol/kg bw. The calculated quantity of drugs was diluted from the stock solution in saline or mouse plasma to a final volume of 200 μL.

Data set [3] can be described thus: Preliminary brain levels after intraperitoneal An2-PAPTP. It counts as in vivo, mouse. To be noted: An2-PAPTP 5 µmol/kg bw i.p. in DMSO; sacrifice at 20 min or 1, 2, 4 h; four mice. The protocol:
In preliminary tests An2-PAPTP was administered at 5 µmol/kg bw by the intraperitoneal (i.p.) route, using dimethylsulfoxide (DMSO) as the vehicle. […] Many brain-penetrating peptides bind to biomolecules such as proteins and cell structures such as membranes. Furthermore, the absence of a flowing bloodstream at the injection site may cause a poorly soluble molecule to remain confined in the vicinity of the point of delivery. […] Collectively, these preliminary results led to the adoption of the intravenous route. An2-PAPTP (5 µmoles/kg bw, in plasma) was thus administered by tail vein injection to mice.

Data set [4] has as its system cultured glioma and glioblastoma cell lines. To be noted: cited from earlier work. The text has this:
(§4) In turn, this difficulty may be due at least in part precisely to the TPP group, since the parent compound, PAP-1, is effective against various Central Nervous System (CNS) disorders. This difficulty is not surprising if one compares the characteristics of ...

Data set [5] deals with orthotopic glioma. To be noted: orthotopic murine model; cited from earlier work.
Source text: as §4

Data set [6] can be described thus: Aqueous solubility determination. The class given is physicochemical. To be noted: kinetic, 25 mM DMSO stock diluted to 100 μM (DMSO < 0.4%), supernatant HPLC/UV. As to the method: For TAT-PAPTP and An2-PAPTP, three distinct suspensions were prepared by diluting 25 mM stock solutions in DMSO to 100 μM, in 0.9% NaCl saline or water (DMSO < 0.4%). The suspensions were sonicated 5 min and immediately analyzed. The suspensions were then centrifuged at 12,000× g, 18 °C, for 1 and 2 h, and the supernatants were analyzed by HPLC/UV at the end of each centrifugation. An additional analysis was performed after 24 h of standing. The chromatographic peak areas were used to determine the concentration of the compound in the supernatants, based on calibration curves built using solutions in DMSO.

Data set [7] can be described thus: Stability in blood (hydrolysis, PAPTPL release). The class given is in vitro ADME. Conditions: fresh heparinized C57BL mouse blood, 37 °C, 5 µM from 5 mM DMSO stock, HPLC-UV, % PAPTPL released relative to amount spiked, mean, n = 5 (An2-PAPTP) and 4 (TAT-PAPTP). As to the method: C57BL mice were anesthetized and blood was withdrawn from the jugular vein and heparinized. Blood samples (1 mL) were spiked with compound (5 µM; dilution from a 5 mM stock solution in DMSO) and incubated at 37 °C for 4 h (the maximum period allowed by blood stability). Aliquots were taken after 10 min, 30 min, 1 h, 2 h, and 4 h before HPLC-UV analysis.
Each aliquot was treated as described above (Section 4.7.1). Compound stability in blood was expressed as % of PAPTPL released relative to the amount of An2-PAPTP and TAT-PAPTP spiked in the sample at time 0.

Data set [8] is classed as in vivo, mouse. To be noted: TAT-PAPTP 5 µmoles/kg bw i.v. tail vein in mouse plasma, 2 C57BL mice sacrificed within 15 min; PAPTPL extracted after hydrolysis at pH 12.5, HPLC. As to the method: The brains of these mice were analyzed to evaluate the presence of the construct in the tissue (see Section 4.7). Each brain was homogenized and incubated with an equal volume of phosphate-buffered saline (PBS, pH 12.5) for 24 h; 10 volumes of ethyl acetate were then added. After vigorous mixing, the organic phase was collected, concentrated and analyzed via HPLC. This procedure allows hydrolysis of the carbamate bond, leading to the extraction of PAPTPL, which is considered proportional to the amount of peptide-PAPTP conjugate (or its fragments) present in the brain.
The protocol set up for PAPTPL recovery turned out to be inefficient for the quantification of TAT-PAPTP. An alternative protocol was thus developed. Tissue obtained from untreated mice was weighed and homogenized with PBS pH 7.4 (1 vol) with a potter. The pre-established amount of analyte was added into tissue homogenates and, after thorough vortexing, 1 vol of PBS pH 12.5 was added and the sample was incubated with intermittent vortexing at 60 °C for 24 h. This step is required to allow the hydrolysis of the carbamate bond connecting the peptide and PAPTPL. 10 vol of ethyl acetate were added and, after vortexing and sonication for 2 min, the sample was centrifuged at 12,000× g, 7 min, Room Temperature. The organic phase was collected and concentrated with Hetovac VR-1. ACN was added to the concentrated sample to allow the resuspension of PAPTPL and analyzed via HPLC. Quantification was as described for PAPTPL.
as §1, §2, §3

In data set [9] the test system is C57BL mice. Briefly: Observed toxicity after tail vein injection. It counts as in vivo. To be noted: 5 µmoles/kg bw by tail vein injection in mouse plasma, no proper toxicological study. The protocol:
TAT-PAPTP (5 µmoles/kg bw) was administered by tail vein injection to 2 C57BL mice. […] The observed toxicity was not due to the use of plasma, since mice were not made ill by the administration of PAPTP or An2-PAPTP in the same vehicle (see below, Section 2.7).
as §3

Data set [10] concerns mouse Red Blood Cells. Briefly: Haemolysis assay. The class given is cell-based. To be noted: 5 × 10^7 mouse erythrocytes in 1 mL PBS pH 7.4, 2, 1 or 0.5 µM, 15 min, absorbance 540 nm, n = 3. The protocol:
Haemolysis studies were conducted as described in [72]. Briefly, freshly withdrawn blood samples were centrifuged at 1000× g for 10 min to obtain erythrocytes; the pellet was then washed thrice with sterile PBS (pH 7.4). Erythrocytes (5 × 10^7 cells in 1 mL of PBS for each experimental condition) were incubated with 2, 1 or 0.5 µM An2-PAPTP or TAT-PAPTP for 15 min. The samples were then centrifuged and absorbance (Abs) of the supernatant was measured at 540 nm. Triton X-100 1% and PBS were used as positive and negative control, respectively.
The percentage of haemolysis was calculated with the following equation:% haemolysis = [(Abssample − AbsPBS)/AbsTriton X-100 − AbsPBS)] × 100

Setting [11] is: after An2-PAPTP 5 µmoles/kg bw i.v.

Each structure is given as a SMILES string.

In the case of `O=C([O-])C(F)(F)F.O=c1ccc2c(OCCCCOc3ccc(CCC[P+](c4ccccc4)(c4ccccc4)c4ccc(OCCCc5ccc(O)cc5)cc4)cc3)c3ccoc3cc2o1` [PAPTPL, (4-(3-(4-hydroxyphenyl)propoxy)phenyl)(3-(4-(4-((7-oxo-7H-furo[3,2-g]chromen-4-yl)oxy)butoxy)phenyl)propyl)diphenylphosphonium 2,2,2-trifluoroacetate], in data set [1] (24 h, MTS, one-way ANOVA), the “difference in cytotoxic effect versus PAPTP” value is given as “no statistically significant difference”. In addition, the “cytotoxic effect (cell viability, MTS reduction assay)” value in [1] (24 h treatment, 20, 10 and 3 μM, absorbance 490 nm, n = 3) is “marked cytotoxicity”. In [2] (after An2-PAPTP 5 µmoles/kg bw i.v. in mouse plasma, HPLC-UV), the “metabolite in liver, 15 min” value turned out to be 1.5 ± 0.6 nmol/g fresh tissue. For the same compound, in data set [2] (setting [11]), the “metabolite in heart, 15 min” value was determined as 0.12 ± 0.06 nmol/g fresh tissue; the “metabolite in kidneys, 15 min” value is reported as 0.7 ± 0.1 nmol/g fresh tissue; the “metabolite in liver, 15 min” value turned out to be 1.2 ± 0.5 % administered dose; the “metabolite in spleen, 15 min” value is 0.9 ± 0.2 nmol/g fresh tissue. In [2] (after An2-PAPTP i.v.), the “metabolite in heart, 15 min” value was 0.013 ± 0.007 % administered dose; the “metabolite in kidneys, 15 min” value was 0.1 ± 0.1 % administered dose; the “metabolite in spleen, 15 min” value came to 0.05 ± 0.02 % administered dose. For the same compound, the “detection in brain after i.p. administration” value in data set [3] is “no An2-PAPTP or PAPTPL could be detected”.
For `O=C(NCCC[P+](c1ccccc1)(c1ccccc1)c1ccccc1)Oc1ccc(OCCCCOc2c3ccoc3cc3oc(=O)ccc23)cc1.[I-]` [PCARBTP, (3-(((4-(4-((7-oxo-7H-furo[3,2-g]chromen-4-yl)oxy)butoxy)phenoxy)carbonyl)amino)propyl)triphenylphosphonium iodide], the “killing of cultured glioma and glioblastoma cell lines” value in [4] is recorded as “efficiently killed”. The “effect on tumor growth” value in data set [5] was “did not affect tumor growth”.
In the case of `CC[C@H](C)[C@H](NC(=O)Oc1ccc(CCCOc2ccc([P+](CCCc3ccc(OCCCCOc4c5ccoc5cc5oc(=O)ccc45)cc3)(c3ccccc3)c3ccccc3)cc2)cc1)C(=O)NCC(=O)N[C@@H](CCCNC(=N)N)C(=O)N[C@@H](CCCCN)C(=O)N[C@@H](CCCCN)C(=O)N[C@@H](CCCNC(=N)N)C(=O)N[C@@H](CCCNC(=N)N)C(=O)N[C@@H](CCC(N)=O)C(=O)N[C@@H](CCCNC(=N)N)C(=O)N[C@@H](CCCNC(=N)N)C(=O)N[C@@H](CCCNC(=N)N)C(=O)N1CCC[C@H]1C(=O)N1CCC[C@H]1C(=O)N[C@@H](CCC(N)=O)C(=O)NCC(=O)O` [TAT-PAPTP], the “solubility in 0.9% NaCl saline” value in [6] (0.9% NaCl saline, sonicated 5 min, centrifuged 12,000 × g 18 °C 1 and 2 h, detection limit 0.1 µM) is over 100 µM. This compound returned a solubility in water in data set [6] (water, sonicated, centrifuged 12,000 × g 18 °C) of over 100 µM. In addition, the “hydrolyzed in mouse blood over 4 h (PAPTPL released)” value in data set [7] is on record as “more stable”. The “construct level in brain” value in [8] is listed as 0.2–0.3 nmoles/g fresh tissue. Further, the “observed toxicity in mice” value is “evident signs of illness (respiratory difficulties, trailing limbs, swelling of the paws)” in data set [9]; “more toxic than its individual components (TAT and PAPTP) as well as than An2-PAPTP” in data set [9] (listed as TAT-PAPT). Also, in data set [10], the “haemolysis (release of haemoglobin)” value was “did”.
